Data on two molecules can be found in patent US11607404B2, “Combinations of RAD51 and PARP inhibitors” (Cyteir Therapeutics, Inc., priority 2019, dated 2023).

SMILES strings stand for the structures. Read-outs that look alike come from different tables or passages of the source.

Data set [1] relates to WI-38 cells (AID negative). Put plainly: Primary screening cell killing assay repeated in AID negative cells. In kind it is cell-based, Human. How it is done:
(§1) Primary screening was a phenotypic screen that utilized the synthetic lethal interaction between AID and RAD51 to identify compounds that were both potent and on target. AID expressing cells are dependent upon RAD51 for survival; inhibiting RAD51 in AID positive cells results in a cytotoxic effect.
Percent cell death and EC50 values were calculated by comparing the cell viability of the compound treated wells to the non-treated wells. Normalized RLU values were obtained by subtracting the media well values from each of the wells in the same column, and then dividing that value by the DMSO treated cells values. The percent kill was then calculated by subtracting the normalized RLU value from 1 and multiplying by 100. The average normalized percent kill value and standard error of the mean was then calculated. The kill values were then inputted into Prism with the corresponding standard errors. In Prism a non-linear regression line was plotted with the data points using a semi-log scale, and the EC50 value was calculated.
The activity of the claimed compounds was measured in a variety of cell lines with different expression levels of activation induced cytidine deaminase (AICDA). The potency assay was repeated in all of the listed cell lines and the EC50 values recorded.

The nature of data set [2]: Pharmacokinetic (PK) study. Type of data set: in vivo, Rat. The note with it: po @ 80 mg/kg (30% PEG400, 10% Vitamin E TPGS in water). On the procedure: PK studies in mice were used to determine the fate of the compounds in a whole organism. Rats were treated with the compounds either orally of via IV at the indicated doses and followed for up to 24 hours. Plasma samples were taken at different time points and analyzed by LC-MS.

Data set [3] can be described thus: Human liver microsome stability. In kind it is in vitro ADME. The note with it: for Human Liver Microsome Stability Half Life: 37° C., 45 minutes incubation; for Human Liver Microsome Stability % QH: percentage of hepatic blood flow. How it is done:
The stability of the claimed compounds was determined in the presences of human liver microsomes. The compounds were incubated with the microsomes at 37° C. for 45 minutes. Samples were analyzed using LC-MS/MS. Data analysis included half-life, clearance rate, and the percentage of hepatic blood flow (% QH) for each of the compounds in the different species.
A general note: Liver microsomes are vesicles of endoplasmic reticulum, rich in cytochrome P450 enzymes.

In the next data set the test system is KYSE-70 (Head and Neck). The data set can be described thus: Cell line screen (potency assay). Type of data set: cell-based. The note with it: Homo sapiens, AICDA expression Low. On the procedure:
(§2) The first step was to set up a cell killing assay in the Daudi cell line (AID positive). A 96 well u-bottom plate was prepared by writing the experiment number, plate number, date and initials in the top right corner of the plate lid. With a sterile 300 ml reservoir, and 25 ml serological pipette, evaporation buffer media was pipetted into reservoir in 25 ml increments. Using the liquid handler, 150 ul of evaporation buffer media was pipetted from reservoir into rows A and H, and Columns 1 and 12 of the 96 well u-bottom plate. Cell cultures were counted to obtain the density of cells per ml, and the culture viability. The cell density information was used to obtain 1,000,000 cells from culture using a 5 mL serological pipette into an epi tube. The cell density information from the culture was used to calculate the number of cells and volume of media needed for the assay to seed 1250 cells in 130 ul of media per available culture well in the 96 well u-bottom plate. Rows B through F were used for cells (50 wells in total), with row G left for an empty media control. The calculation was overestimated by 10 mL to account for the dead volume in the 300 ml reservoir. Once the media volume was calculated, the appropriate volume of media was pipetted in 25 mL increments into the 250 mL bottle using a 25 mL serological pipette. The 250 ml bottle was capped tightly, and placed into a 37° C. water bath for 2 minutes. While the culture media was warming, 10 mL of fresh media was pipetted from the 500 mL culture media bottle into a sterile 25 mL reservoir. Using the Eppendorf multichannel pipette, 130 ul of media was piptted from the 25 mL reservoir into row G of the 96 well u-bottom plate. Once the 250 mL bottle of media was warmed, the volume of culture needed was pipetted into the bottle, and mixed gently with a 25 mL serological pipette as to not create bubbles, and then the contents of the bottle were pipetted into a new 300 mL reservoir. Using the liquid handler, 130 ul of culture was pipetted from the 300 mL reservoir into rows B through F of the 96 well u-bottom plate. Once the culture was added, the plate was placed into a 37° C. incubator until the compound master plate was prepared for use.
(§3) Two 96 well u-bottom plates were prepared by writing the master plate name in the upper right corner of the plate lid. Labeling one DMSO master and the other Media Master. The compounds of interest were obtained from the laboratory freezer, and placed into a 25 well storage box with a lid, and set the box aside. The compounds were vortexed after thawing but before use. Using an automatic multichannel pipette, 20 ul of 100% DMSO was pipetted into wells B3-B11 through G3-G11 of the DMSO master plate. For each compound on the master plate, 50 ul of the compound were pipetted in the appropriate well of row 2 (reference plate map to determine appropriate well). A serial dilution was prepared beginning by aspirating 20 ul from row 2 and mixing with row 3, repeating until row 11 was reached. Using the liquid handler, 194 ul of Daudi media was dispensed into wells B2-B11 through G2-G11 of the Media master plate. Using the liquid handler, 6 ul from the DMSO master plate was aspirated and dispensed into the media master plate, mixing 100 ul twice.
(§4) Compounds from master plate were then added to the culture plate. The culture plates were removed from the incubator, and set inside the biosafety cabinet. Using a liquid handler, 20 ul from wells B2 to B11 through G2 to G11 of master plate were aspirated, and dispensed into wells B2 to B11 through G2 to G11 of culture plate. This set was continued with each culture plate. Once the culture plates acquired their 20 ul of compound dilutions, they were placed back into the incubator, until their reads on Day 7 of experiment. Cell death was measured on Day 7 of the experiment using Cell-Titer Glo and a Promega Plate reader. […]

Another data set has as its system KYSE-510 (Head and Neck). Put plainly: Cell line screen (potency assay). The note with it: Homo sapiens, AICDA expression Negative. Type of data set: cell-based. On the procedure: as §2, §3, §4
Another data set concerns WSU-FSCCL (Lymphoma). Put plainly: Cell line screen (potency assay). In kind it is cell-based. The conditions noted are these: AICDA expression Negative. How it is done: as §2, §3, §4
In a further data set the test system is OV56 (Ovary). The data set can be described thus: Cell line screen (potency assay). In kind it is cell-based. The conditions noted are these: AICDA expression Low. How it is done: as §2, §3, §4
For another data set, the system named is CCRF-SB (Leukemia). Put plainly: Cell line screen (potency assay). In kind it is cell-based. The conditions noted are these: Homo sapiens, AICDA expression High. On the procedure: as §2, §3, §4
The test system of a further data set is U-698-M (Lymphoma). The data set can be described thus: Cell line screen (potency assay). In kind it is cell-based. The conditions noted are these: AICDA expression High. How it is done:
as §2, §3, §4

Another data set has as its system KG-1 (Leukemia). Put plainly: Cell line screen (potency assay). In kind it is cell-based. The note with it: AICDA expression Negative. How it is done: as §2, §3, §4
A further data set concerns TOV-1120D (Ovary). The data set can be described thus: Cell line screen (potency assay). Type of data set: cell-based. The conditions noted are these: AICDA expression Negative. On the procedure: as §2, §3, §4
In data set [4] the test system is ARPE19/HPV16 (HPV Immortalized RPE). Put plainly: Cell line screen (potency assay). In kind it is cell-based. The conditions noted are these: ARPE-19, AICDA expression Negative. On the procedure:
as §2, §3, §4

For data set [5], the system named is Daudi cell line (AID positive). The data set can be described thus: Primary screening cell killing assay (Cell-Titer Glo, Day 7). In kind it is cell-based. The note with it: Homo sapiens. How it is done: as §1, §2, §3
Compounds from master plate were then added to the culture plate. The culture plates were removed from the incubator, and set inside the biosafety cabinet. Using a liquid handler, 20 ul from wells B2 to B11 through G2 to G11 of master plate were aspirated, and dispensed into wells B2 to B11 through G2 to G11 of culture plate. This set was continued with each culture plate. […]

The nature of data set [6]: Bi-directional Caco-2 permeability. In kind it is in vitro ADME. The note with it: human. How it is done: Bi-directional Caco-2 permeability was assayed. Caco-2 cells were seeded onto permeable polycarbonate supports and allowed to differentiate for about 3 weeks prior to being used in the assays. The cells were then exposed to the compounds from either the apical or basolateral sides and incubated at 37 C for up to 90 minutes under light agitation. Compound transport was then measured using LC/MS/MS analysis at 30, 60, and 90 minutes.

[7] abbreviates: Homo sapiens, WI-38 cells (AID negative), read-out: AID− EC50.
Where [8] appears, read: WI-38 (Normal Human Lung Fibroblast), AICDA expression Negative, read-out: EC50.
[9] abbreviates: 168 h, Daudi cells (AID positive), cell death on Day 7, read-out: AID+ EC50.
The mark [10] stands for this setting: Daudi (Lymphoma), AICDA expression High, read-out: EC50.
[11] abbreviates: Caco-2, apical to basolateral, read-out: AB Recovery %.
Setting [12] is: Caco-2, basolateral to apical, read-out: BA Recovery %.

The EC50 is the concentration giving half of the maximal effect. In the case of `CC(C)OC(=O)N[C@H]1CC[C@H](c2ncc(-c3ccc(NC(=O)NCc4ccccn4)cc3S(=O)(=O)NC(C)(C)C)s2)CC1` [Compound 29], the EC50 in data set [1] (setting [7]) is above 1000 nM; in data set [1] (setting [8]) it was above 10000 nM; with KYSE-70 (Head and Neck), 4660 nM; in the data set with KYSE-510 (Head and Neck) it was above 10000 nM; in the data set with WSU-FSCCL (Lymphoma) it was 67 nM; in the data set on OV56 (Ovary), 9090 nM. For the same molecule, the EC50 is 1280 nM with CCRF-SB (Leukemia); 113 nM in the data set with U-698-M (Lymphoma); above 10000 nM in the data set on KG-1 (Leukemia); 9170 nM with TOV-1120D (Ovary); above 10000 nM in [4]; at most 100 nM in data set [5] (setting [9]). Further, in data set [5] (setting [10]), the EC50 worked out at 43 nM. Further, the “F (%) @ 5 mg/kg” value in data set [2] (Rat Female) was found to be 8.39%; in [2] (Rat Male), 3.69%. Further, the “T1/2” value was found to be 4.66 h in data set [2] (Rat Female) and 3.97 h in data set [2] (Rat Male). Moreover, in [3], the “Human Liver Microsome Stability Half Life” value came out at 0.342 h. Moreover, in [3], the “Human Liver Microsome Stability % QH” value is 78.8%. Besides, the values for the recovery at 90 min in [6] (setting [11]) and in data set [6] (setting [12]) were 93.9% and 90.9%, respectively.
For `CC(C)OC(=O)N[C@H]1CC[C@H](c2ncc(-c3ccc(NC(=O)NCc4ncccc4F)cc3S(=O)(=O)NC(C)(C)C)s2)CC1` [Compound 31], the EC50 is above 1000 nM in [1] (setting [7]); above 10000 nM in data set [1] (setting [8]); 4700 nM in the data set on KYSE-70 (Head and Neck); above 10000 nM in the data set on KYSE-510 (Head and Neck); below 40 nM with WSU-FSCCL (Lymphoma); 2160 nM with CCRF-SB (Leukemia). For the same molecule, the EC50 is 31 nM in the data set on U-698-M (Lymphoma); 8780 nM with KG-1 (Leukemia); above 10000 nM in data set [4]; at most 100 nM in data set [5] (setting [9]); 20 nM in data set [5] (setting [10]). The figures for the “F (%) @ 5 mg/kg” value in [2] (Rat Female) and in [2] (Rat Male) were 2.77% and 1.49%, respectively. The “T1/2” value in data set [2] (Rat Female) turned out to be 4.75 h; in [2] (Rat Male) it was 3.79 h. In data set [3], the “Human Liver Microsome Stability Half Life” value is 0.373 h. Besides, in data set [3], the “Human Liver Microsome Stability % QH” value is on record as 77.3%. Also, the recovery at 90 min in [6] (setting [11]) was determined as 70.5%; in data set [6] (setting [12]), 92.3%.
